Experimental data taken from ChEMBL document CHEMBL5724806, “Unraveling interindividual differences and functional consequences of gut microbial metabolism of immunosuppressants” (2024).

What was measured:
Format in all cases: ADME
[1] = (§1) The drug is tested on Bifidobacterium longum strain: DSM20088 for biotransformation under anaerobic condition. The drug concentrations were measured over 6 timepoints collected between 0 and 12 hours of incubation by liquid-chromatography-coupled mass spectrometry (LC–MS); parameters: dose 5 uM, timepoint 0, 1.5, 3, 6, 9, 12 hours; details: 5 µM
[2] = The drug is tested on Collinsella aerofaciens strain: DSM3979 for biotransformation under anaerobic condition. The drug concentrations were measured over 6 timepoints collected between 0 and 12 hours of incubation by liquid-chromatography-coupled mass spectrometry (LC–MS); parameters: dose 5 uM, timepoint 0, 1.5, 3, 6, 9, 12 hours; details: 5 µM
[3] = The drug is tested on Bacteroides caccae strain: DSM19024 for biotransformation under anaerobic condition. The drug concentrations were measured over 6 timepoints collected between 0 and 12 hours of incubation by liquid-chromatography-coupled mass spectrometry (LC–MS); parameters: dose 5 uM, timepoint 0, 1.5, 3, 6, 9, 12 hours; details: 5 µM
[4] = The drug is tested on Bacteroides fragilis strain: DSM2151 for biotransformation under anaerobic condition. The drug concentrations were measured over 6 timepoints collected between 0 and 12 hours of incubation by liquid-chromatography-coupled mass spectrometry (LC–MS); parameters: dose 5 uM, timepoint 0, 1.5, 3, 6, 9, 12 hours; details: 5 µM
[5] = The drug is tested on Bacteroides uniformis strain: DSM6597 for biotransformation under anaerobic condition. The drug concentrations were measured over 6 timepoints collected between 0 and 12 hours of incubation by liquid-chromatography-coupled mass spectrometry (LC–MS); parameters: dose 5 uM, timepoint 0, 1.5, 3, 6, 9, 12 hours; details: 5 µM
[6] = The drug is tested on Bacteroides vulgatus strain: DSM1447 for biotransformation under anaerobic condition. The drug concentrations were measured over 6 timepoints collected between 0 and 12 hours of incubation by liquid-chromatography-coupled mass spectrometry (LC–MS); parameters: dose 5 uM, timepoint 0, 1.5, 3, 6, 9, 12 hours; details: phocaeicola vulgatus, 5 µM
[7] = The drug is tested on Blautia hansenii strain: DSM20583 for biotransformation under anaerobic condition. The drug concentrations were measured over 6 timepoints collected between 0 and 12 hours of incubation by liquid-chromatography-coupled mass spectrometry (LC–MS); parameters: dose 5 uM, timepoint 0, 1.5, 3, 6, 9, 12 hours; details: 5 µM
[8] = The drug is tested on Clostridium scindens strain: DSM5676 for biotransformation under anaerobic condition. The drug concentrations were measured over 6 timepoints collected between 0 and 12 hours of incubation by liquid-chromatography-coupled mass spectrometry (LC–MS); parameters: dose 5 uM, timepoint 0, 1.5, 3, 6, 9, 12 hours; details: 5 µM
[9] = The drug is tested on Dorea formicigenerans strain: DSM3992 for biotransformation under anaerobic condition. The drug concentrations were measured over 6 timepoints collected between 0 and 12 hours of incubation by liquid-chromatography-coupled mass spectrometry (LC–MS); parameters: dose 5 uM, timepoint 0, 1.5, 3, 6, 9, 12 hours; details: 5 µM
[10] = The drug is tested on Eubacterium rectale strain: DSM17629 for biotransformation under anaerobic condition. The drug concentrations were measured over 6 timepoints collected between 0 and 12 hours of incubation by liquid-chromatography-coupled mass spectrometry (LC–MS); parameters: dose 5 uM, timepoint 0, 1.5, 3, 6, 9, 12 hours; details: agathobacter rectalis, 5 µM
[11] = The drug is tested on Lactobacillus fermentum strain: DSM20052 for biotransformation under anaerobic condition. The drug concentrations were measured over 6 timepoints collected between 0 and 12 hours of incubation by liquid-chromatography-coupled mass spectrometry (LC–MS); parameters: dose 5 uM, timepoint 0, 1.5, 3, 6, 9, 12 hours; details: limosilactobacillus fermentum, 5 µM
[12] = The drug is tested on Lactobacillus gasseri strain: DSM20243 for biotransformation under anaerobic condition. The drug concentrations were measured over 6 timepoints collected between 0 and 12 hours of incubation by liquid-chromatography-coupled mass spectrometry (LC–MS); parameters: dose 5 uM, timepoint 0, 1.5, 3, 6, 9, 12 hours; details: 5 µM
[13] = The drug is tested on Lactobacillus paracasei strain: ATCC27092 for biotransformation under anaerobic condition. The drug concentrations were measured over 6 timepoints collected between 0 and 12 hours of incubation by liquid-chromatography-coupled mass spectrometry (LC–MS); parameters: dose 5 uM, timepoint 0, 1.5, 3, 6, 9, 12 hours; details: lacticaseibacillus paracasei, 5 µM
[14] = The drug is tested on Streptococcus sanguinis strain: DSM20567 for biotransformation under anaerobic condition. The drug concentrations were measured over 6 timepoints collected between 0 and 12 hours of incubation by liquid-chromatography-coupled mass spectrometry (LC–MS); parameters: dose 5 uM, timepoint 0, 1.5, 3, 6, 9, 12 hours; details: 5 µM
[15] = (§2) The drug is tested on Actinomyces graevenitzii strain: DSM15540 for biotransformation under microaerobic condition. The drug concentrations were measured over 6 timepoints collected between 0 and 12 hours of incubation by liquid-chromatography-coupled mass spectrometry (LC–MS); parameters: dose 5 uM, timepoint 0, 1.5, 3, 6, 9, 12 hours; details: 5 µM
[16] = The drug is tested on Gemella haemolysans strain: DSM107751 for biotransformation under microaerobic condition. The drug concentrations were measured over 6 timepoints collected between 0 and 12 hours of incubation by liquid-chromatography-coupled mass spectrometry (LC–MS); parameters: dose 5 uM, timepoint 0, 1.5, 3, 6, 9, 12 hours; details: 5 µM
[17] = The drug is tested on Lactobacillus paracasei strain: ATCC27092 for biotransformation under microaerobic condition. The drug concentrations were measured over 6 timepoints collected between 0 and 12 hours of incubation by liquid-chromatography-coupled mass spectrometry (LC–MS); parameters: dose 5 uM, timepoint 0, 1.5, 3, 6, 9, 12 hours; details: lacticaseibacillus paracasei, 5 µM
[18] = as §1, with “the gut metagenome community of A-02 with ENA study accession number: PRJEB31790” for “Bifidobacterium longum strain: DSM20088”, “7” for “6”; parameters: dose 5 uM, timepoint 0, 0.75, 1.5, 3, 6, 9, 12 hours; details: 5 µM
[19] = as §1, with “the gut metagenome community of A-06 with ENA study accession number: PRJEB31790” for “Bifidobacterium longum strain: DSM20088”, “7” for “6”; parameters: dose 5 uM, timepoint 0, 0.75, 1.5, 3, 6, 9, 12 hours; details: 5 µM
[20] = as §1, with “the gut metagenome community of A-08 with ENA study accession number: PRJEB31790” for “Bifidobacterium longum strain: DSM20088”, “7” for “6”; parameters: dose 5 uM, timepoint 0, 0.75, 1.5, 3, 6, 9, 12 hours; details: 5 µM
[21] = as §1, with “the gut metagenome community of P-02 with ENA study accession number: PRJEB31790” for “Bifidobacterium longum strain: DSM20088”, “7” for “6”; parameters: dose 5 uM, timepoint 0, 0.75, 1.5, 3, 6, 9, 12 hours; details: 5 µM
[22] = as §1, with “the gut metagenome community of P-03 with ENA study accession number: PRJEB31790” for “Bifidobacterium longum strain: DSM20088”, “7” for “6”; parameters: dose 5 uM, timepoint 0, 0.75, 1.5, 3, 6, 9, 12 hours; details: 5 µM
[23] = as §1, with “the gut metagenome community of T-04 with ENA study accession number: PRJEB31790” for “Bifidobacterium longum strain: DSM20088”, “7” for “6”; parameters: dose 5 uM, timepoint 0, 0.75, 1.5, 3, 6, 9, 12 hours; details: 5 µM
[24] = as §1, with “the gut metagenome community of T-05 with ENA study accession number: PRJEB31790” for “Bifidobacterium longum strain: DSM20088”, “7” for “6”; parameters: dose 5 uM, timepoint 0, 0.75, 1.5, 3, 6, 9, 12 hours; details: 5 µM
[25] = as §2, with “the gut metagenome community of A-02 with ENA study accession number: PRJEB31790” for “Actinomyces graevenitzii strain: DSM15540”, “7” for “6”; parameters: dose 5 uM, timepoint 0, 0.75, 1.5, 3, 6, 9, 12 hours; details: 5 µM
[26] = as §2, with “the gut metagenome community of A-03 with ENA study accession number: PRJEB31790” for “Actinomyces graevenitzii strain: DSM15540”, “7” for “6”; parameters: dose 5 uM, timepoint 0, 0.75, 1.5, 3, 6, 9, 12 hours; details: 5 µM
[27] = as §2, with “the gut metagenome community of A-09 with ENA study accession number: PRJEB31790” for “Actinomyces graevenitzii strain: DSM15540”, “7” for “6”; parameters: dose 5 uM, timepoint 0, 0.75, 1.5, 3, 6, 9, 12 hours; details: 5 µM
[28] = as §2, with “the gut metagenome community of P-02 with ENA study accession number: PRJEB31790” for “Actinomyces graevenitzii strain: DSM15540”, “7” for “6”; parameters: dose 5 uM, timepoint 0, 0.75, 1.5, 3, 6, 9, 12 hours; details: 5 µM
[29] = as §2, with “the gut metagenome community of T-04 with ENA study accession number: PRJEB31790” for “Actinomyces graevenitzii strain: DSM15540”, “7” for “6”; parameters: dose 5 uM, timepoint 0, 0.75, 1.5, 3, 6, 9, 12 hours; details: 5 µM
[30] = as §2, with “the gut metagenome community of T-05 with ENA study accession number: PRJEB31790” for “Actinomyces graevenitzii strain: DSM15540”, “7” for “6”; parameters: dose 5 uM, timepoint 0, 0.75, 1.5, 3, 6, 9, 12 hours; details: 5 µM

Bacterial Biotransformation [1]	Bacterial Biotransformation [2]	Bacterial Biotransformation [3]	Bacterial Biotransformation [4]	Bacterial Biotransformation [5]	Bacterial Biotransformation [6]	Bacterial Biotransformation [7]	Bacterial Biotransformation [8]	Bacterial Biotransformation [9]	Bacterial Biotransformation [10]	Bacterial Biotransformation [11]	Bacterial Biotransformation [12]	Bacterial Biotransformation [13]	Bacterial Biotransformation [14]	Bacterial Biotransformation [15]	Bacterial Biotransformation [17]	Bacterial Biotransformation [18]	Bacterial Biotransformation [19]	Bacterial Biotransformation [20]	Structure (SMILES)	Bacterial Biotransformation [16]	other results
Compound metabolized	Compound metabolized	Compound metabolized	Compound NOT metabolized	Compound metabolized	Compound NOT metabolized	Compound metabolized	Compound metabolized	Compound metabolized	Compound NOT metabolized	Compound NOT metabolized	Compound metabolized	Compound NOT metabolized	Compound metabolized	Compound metabolized	Compound NOT metabolized	Compound metabolized	Compound metabolized	Compound metabolized	CO[C@H]1C[C@@H]2CC[C@@H](C)[C@@](O)(O2)C(=O)C(=O)N2CCCC[C@H]2C(=O)O[C@H]([C@H](C)C[C@@H]2CC[C@@H](O)[C@H](OC)C2)CC(=O)[C@H](C)/C=C(\C)[C@@H](O)[C@@H](OC)C(=O)[C@H](C)C[C@H](C)/C=C/C=C/C=C/1C [SIROLIMUS]	Compound NOT metabolized	Bacterial Biotransformation [21]: Compound NOT metabolized; Bacterial Biotransformation [22]: Compound NOT metabolized; Bacterial Biotransformation [23]: Compound NOT metabolized; Bacterial Biotransformation [24]: Compound NOT metabolized; Bacterial Biotransformation [25]: Compound metabolized; Bacterial Biotransformation [26]: Compound metabolized; Bacterial Biotransformation [27]: Compound metabolized; Bacterial Biotransformation [28]: Compound NOT metabolized; Bacterial Biotransformation [29]: Compound NOT metabolized; Bacterial Biotransformation [30]: Compound NOT metabolized
Compound NOT metabolized	Compound metabolized	Compound NOT metabolized	Compound NOT metabolized	Compound metabolized	Compound NOT metabolized	Compound metabolized	Compound metabolized	Compound metabolized	Compound NOT metabolized	Compound NOT metabolized	Compound NOT metabolized	Compound NOT metabolized	Compound NOT metabolized	Compound NOT metabolized	Compound NOT metabolized	Compound NOT metabolized	Compound metabolized	Compound metabolized	C=CC[C@@H]1/C=C(\C)C[C@H](C)C[C@H](OC)[C@H]2O[C@@](O)(C(=O)C(=O)N3CCCC[C@H]3C(=O)O[C@H](/C(C)=C/[C@@H]3CC[C@@H](O)[C@H](OC)C3)[C@H](C)[C@@H](O)CC1=O)[C@H](C)C[C@@H]2OC.O [TACROLIMUS]	Compound NOT metabolized	Bacterial Biotransformation [21]: Compound NOT metabolized; Bacterial Biotransformation [22]: Compound NOT metabolized; Bacterial Biotransformation [23]: Compound NOT metabolized; Bacterial Biotransformation [24]: Compound NOT metabolized; Bacterial Biotransformation [25]: Compound metabolized; Bacterial Biotransformation [26]: Compound metabolized; Bacterial Biotransformation [27]: Compound metabolized; Bacterial Biotransformation [28]: Compound NOT metabolized; Bacterial Biotransformation [29]: Compound metabolized; Bacterial Biotransformation [30]: Compound metabolized
Compound NOT metabolized	Compound NOT metabolized	Compound NOT metabolized	Compound NOT metabolized	Compound NOT metabolized	Compound NOT metabolized	Compound NOT metabolized	Compound metabolized	Compound NOT metabolized	Compound NOT metabolized	Compound NOT metabolized	Compound NOT metabolized	Compound NOT metabolized	Compound NOT metabolized	Compound NOT metabolized	Compound NOT metabolized	Compound metabolized	Compound metabolized	Compound metabolized	C[C@]12C=CC(=O)C=C1CC[C@@H]1[C@@H]2[C@@H](O)C[C@@]2(C)[C@H]1CC[C@]2(O)C(=O)CO [PREDNISOLONE]	Compound NOT metabolized	Bacterial Biotransformation [21]: Compound metabolized; Bacterial Biotransformation [22]: Compound metabolized; Bacterial Biotransformation [23]: Compound NOT metabolized; Bacterial Biotransformation [24]: Compound NOT metabolized; Bacterial Biotransformation [25]: Compound metabolized; Bacterial Biotransformation [26]: Compound metabolized; Bacterial Biotransformation [27]: Compound metabolized; Bacterial Biotransformation [28]: Compound metabolized; Bacterial Biotransformation [29]: Compound NOT metabolized; Bacterial Biotransformation [30]: Compound NOT metabolized
